Reference: patent US4709012A, “Novel inhibitor peptides” (Washington University, priority 1986, dated 1987)
Where no end group is shown, it is not given here.

Assays:
Test in all cases: Octapeptide substrate specificity / kinetic characterization with partially purified yeast myristoylating enzyme (Table II)
[1] = target: T1, myristoylating enzyme from yeast (N-myristoylglycylpeptide synthetase) (Saccharomyces cerevisiae, UniProt P14743); format: biochemical; details: for Ki: inhibition of myristoylation of the substrate Gly-Asn-Ala-Ala-Ala-Ala-Arg-Arg
T1 construct: partially purified from a crude homogenate of the cultured yeast cells by fractionation with 51-70% (NH4)2 SO4; endogenous in cells; host or cells: S. cerevisiae strain JR153; ammonium sulfate cut, DEAE-Sepharose CL-6B, CoA-agarose
T1 sequence (P14743 1-455): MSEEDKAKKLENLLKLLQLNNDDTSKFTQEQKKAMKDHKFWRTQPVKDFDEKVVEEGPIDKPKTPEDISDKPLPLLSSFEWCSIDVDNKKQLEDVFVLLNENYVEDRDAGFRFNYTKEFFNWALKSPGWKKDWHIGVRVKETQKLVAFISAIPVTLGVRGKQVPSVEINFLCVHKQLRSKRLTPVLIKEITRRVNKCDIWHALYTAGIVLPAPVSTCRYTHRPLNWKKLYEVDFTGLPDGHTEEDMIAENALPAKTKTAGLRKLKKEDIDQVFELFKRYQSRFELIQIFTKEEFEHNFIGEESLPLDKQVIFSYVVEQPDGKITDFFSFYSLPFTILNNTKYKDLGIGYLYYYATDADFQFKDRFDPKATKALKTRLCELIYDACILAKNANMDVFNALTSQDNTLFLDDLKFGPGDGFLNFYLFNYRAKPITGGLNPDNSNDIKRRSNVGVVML
Experimental: (§1) The synthetic octapeptide Gly-Asn-Ala-Ala-Ala-Ala-Arg-Arg was initially used to identify a unique enzymatic activity which transfers myristic acid to the amino terminal glycine of this and other peptides. […] The enzyme activity was determined in an in vitro assay which measures the transfer of [^3 H]-myristic acid to the acceptor peptide. The transfer reaction is dependent on adenosine triphosphate (ATP) and coenzyme A (CoA). The enzymatic product was then identified by high performance liquid chromatography (HPLC) by co-elution with a chemically synthesized myristoyl peptide standard. […] Both contained M-myristoyl glycine.
(§2) [^3 H]Fatty acyl CoA was synthesized enzymatically and added to the incubation as follows. The acyl CoA synthetase reaction consisted of (per one assay tube): 0.5 μCi of [^3 H]myristic acid; 25 μl of 2X assay buffer (20 mM Tris, pH 7.4, 2 mM dithiothreitol, 10 mM MgCl2, 0.2 mM EGTA); 5 μl of 50 mM ATP in distilled water, adjusted to pH 7.0 with NaOH; […] in distilled water; 15 μl of lmU/μl of Pseudomonas acyl CoA synthetase (Sigma) in 50 mM N-2-hydroxyethylpiperazine-N'-2-ethane sulfonic acid, pH 7.3; 2.5 μl of distilled water. The reaction was allowed to proceed for 20 minutes at 30° C. Typically, 40% to 50% of the [^3 H]fatty acid was converted to its CoA ester by this procedure as measured by determining the radioactivity remaining in the reaction after acidification with 6 N HCl to pH 2.0 and extraction 6 times with 5 volumes of heptane, a modification of the method of Hosaka et al., Meth. Enzymol. 71, 325-333 (1981). Fifty microliters of this reaction were added to tubes containing 40 μl of assay extraction buffer (see above) and 10 μl of 1 mM GlyAsnAlaAlaAlaAlaArgArg. The assay was initiated by the addition of 10 μl of yeast cell extract (typically 50 μg of protein) per tube, followed by incubation at 30° C. for 10 min. The assay was terminated by the addition of 110 μl of methanol and 10 μl of 100% trichloracetic acid (w/v) per tube, followed by cooling ten minutes on ice. Precipitated protein was removed by centrifugation at 8000 x g for 3 minutes in a tabletop Eppendorf centrifuge. (Under these conditions, 95% of synthetic [^3 H]myristoylpeptide or [^3 H]palmitoylpeptide remined soluble when added to an assay mixture.) Fifty microliters of the supernatant were mixed with 75 μl methanol and 75 μl of HPLC buffer A, and analyzed by reverse phase HPLC on a 3.9 mm by 30 cm Waters μ-Bondapak C18 column using the same HPLC buffers described above, starting at 35% acetonitrile and eluting with a 1% per minute acetonitrile gradient. One minute fractions were collected and the radioactivity in each fraction determined by liquid scintillation counting. [^3 H]Myristoyl-GlyAsnAlaAlaAlaAlaArgArg eluted at 24 minutes, while [^3 H]palmitoyl-GlyAsnAlaAlaAlaAlaArgArg eluted at 30 minutes.
Several octapeptides illustrating the present invention were synthesized by the solid phase Merrifield procedure essentially as described in Example 1 and then tested for activity as substrates or inhibitors for the myristoylating enzyme from yeast (S. cerevisiae strain JR153). The octapeptide substrate specificity of the enzyme was tested under the assay conditions described in Example 2 but using 1 μCi of [^3 H]- myristic acid per assay tube. The yeast enzyme used in this example was partially purified from a crude homogenate of the cultured yeast cells by fractionation with 51-70% (NH4)2 SO4 followed by ion exchange column chromatography with DEAE-Sepharose® CL-6B (Pharmacia) and affinity chromatography with CoA-agarose affinity matrix (Pharmacia).

[2] = substrate: CC(C)C[C@H](NC(=O)CN)C(=O)N[C@@H](C)C(=O)N[C@@H](C)C(=O)N[C@@H](C)C(=O)N[C@@H](C)C(=O)N[C@@H](CCCNC(=N)N)C(=O)N[C@@H](CCCNC(=N)N)C(N)=O; format: biochemical, Saccharomyces cerevisiae; details: other: peptide as acyl acceptor, 1 μCi [3H]-myristic acid per tube, 30.0 °C
Experimental: as §1
as §2, with “The reaction was allowed to proceed for 20 minutes at 30° C.” left out, “Enzymol. 71, 325-333 (1981). Fifty microliters of this reaction were added to tubes containing 40 μl of assay extraction buffer (see above) and 10 μl of 1 mM GlyAsnAlaAlaAlaAlaArgArg. The assay was initiated by the addition of 10 μl of yeast cell extract (typically 50 μg of protein) per tube, followed by incubation at 30° C. for 10 min. The assay was terminated by the addition of 110 μl of methanol and 10 μl of 100% trichloracetic acid (w/v) per tube, followed by cooling ten minutes on ice. Precipitated protein was removed by centrifugation at 8000 x g for 3 minutes in a tabletop Eppendorf centrifuge.” left out, “[^3 H]Myristoyl-GlyAsnAlaAlaAlaAlaArgArg eluted at 24 minutes, while [^3 H]palmitoyl-GlyAsnAlaAlaAlaAlaArgArg eluted at 30 minutes.” left out

[3] = substrate: CC(C)[C@H](NC(=O)CN)C(=O)N[C@@H](C)C(=O)N[C@@H](C)C(=O)N[C@@H](C)C(=O)N[C@@H](C)C(=O)N[C@@H](CCCNC(=N)N)C(=O)N[C@@H](CCCNC(=N)N)C(N)=O; format: biochemical, Saccharomyces cerevisiae; details: other: peptide as acyl acceptor, 1 μCi [3H]-myristic acid per tube, 30.0 °C
Experimental: as §1
as §2, with “The reaction was allowed to proceed for 20 minutes at 30° C.” left out, “Enzymol. 71, 325-333 (1981). Fifty microliters of this reaction were added to tubes containing 40 μl of assay extraction buffer (see above) and 10 μl of 1 mM GlyAsnAlaAlaAlaAlaArgArg. The assay was initiated by the addition of 10 μl of yeast cell extract (typically 50 μg of protein) per tube, followed by incubation at 30° C. for 10 min. The assay was terminated by the addition of 110 μl of methanol and 10 μl of 100% trichloracetic acid (w/v) per tube, followed by cooling ten minutes on ice. Precipitated protein was removed by centrifugation at 8000 x g for 3 minutes in a tabletop Eppendorf centrifuge.” left out, “[^3 H]Myristoyl-GlyAsnAlaAlaAlaAlaArgArg eluted at 24 minutes, while [^3 H]palmitoyl-GlyAsnAlaAlaAlaAlaArgArg eluted at 30 minutes.” left out

[4] = substrate: C[C@H](NC(=O)[C@H](C)NC(=O)[C@H](C)NC(=O)[C@H](CC(N)=O)NC(=O)CN)C(=O)N[C@@H](C)C(=O)N[C@@H](CCCNC(=N)N)C(=O)N[C@@H](CCCNC(=N)N)C(N)=O; format: biochemical, Saccharomyces cerevisiae; details: other: peptide as acyl acceptor, 1 μCi [3H]-myristic acid per tube, 30.0 °C
Experimental: as §1
as §2, with “The reaction was allowed to proceed for 20 minutes at 30° C.” left out, “Enzymol. 71, 325-333 (1981). Fifty microliters of this reaction were added to tubes containing 40 μl of assay extraction buffer (see above) and 10 μl of 1 mM GlyAsnAlaAlaAlaAlaArgArg. The assay was initiated by the addition of 10 μl of yeast cell extract (typically 50 μg of protein) per tube, followed by incubation at 30° C. for 10 min. The assay was terminated by the addition of 110 μl of methanol and 10 μl of 100% trichloracetic acid (w/v) per tube, followed by cooling ten minutes on ice. Precipitated protein was removed by centrifugation at 8000 x g for 3 minutes in a tabletop Eppendorf centrifuge.” left out, “[^3 H]Myristoyl-GlyAsnAlaAlaAlaAlaArgArg eluted at 24 minutes, while [^3 H]palmitoyl-GlyAsnAlaAlaAlaAlaArgArg eluted at 30 minutes.” left out

[5] = partially purified yeast enzyme

GLAAAARR-NH2 [Gly--Leu--Ala--Ala--Ala--Ala--Arg--Arg]
Ki [1, 5]: 60 µM

GYAAAARR-NH2 [Gly--Tyr--Ala--Ala--Ala--Ala--Arg--Arg, Gly-Tyr-Ala-Ala-Ala-Ala-Arg-Arg]
Ki [1, 5]: 150 µM

GNAAAARR-NH2 [Gly--Asn--Ala--Ala--Ala--Ala--Arg--Arg, Gly-Asn-Ala-Ala-Ala-Ala-Arg-Arg, reference compound]
Vmax ([1]; absolute Vmax, footnote to Table II): 2840 pmol myristoyl peptide formed
Relative Vmax (%) ([1]; relative to Gly-Asn-Ala-Ala-Ala-Ala-Arg-Arg = 100, partially purified yeast enzyme): 100%

GVAAAARR-NH2 [Gly--Val--Ala--Ala--Ala--Ala--Arg--Arg]
Ki [1, 5]: 60 µM

GFAAAARR-NH2 [Gly--Phe--Ala--Ala--Ala--Ala--Arg--Arg, Gly-Phe-Ala-Ala-Ala-Ala-Arg-Argp]
Ki [1, 5]: 150 µM

B1: myristoylating enzyme from yeast (N-myristoylglycylpeptide synthetase) (Saccharomyces cerevisiae S288C) (protein)
chain: T1 sequence (P14743 1-455)
notes: partially purified from a crude homogenate of the cultured yeast cells by fractionation with 51-70% (NH4)2 SO4; endogenous in cells; host or cells: S. cerevisiae strain JR153; ammonium sulfate cut, DEAE-Sepharose CL-6B, CoA-agarose
Km [2]: 300 µM
Km [3]: 700 µM
Km [4]: 60 µM
